IC50 data for two molecules are collected here from ChEMBL document CHEMBL4118102 (J Med Chem, 2018).

Test [1] concerns the target Neuraminidase (Influenza A virus (A/Memphis/1/1971(H3N2)), UniProt P03471, E119V). On the set-up: species or system Influenza A virus (A/Fukui/45/2004(H3N2)).
The target is the same in test [2]. On the set-up: species or system Influenza A virus (A/Fukui/45/2004(H3N2)). This is another data set of the same source.

Structures are written as SMILES.

What is called IC50 is the midpoint of a concentration-inhibition curve. Low readings indicate greater potency in that assay, high ones weaker potency in that assay. In the case of `CC(=O)N[C@@H]1[C@@H](O)[C@@H](F)[C@](F)(C(=O)O)O[C@H]1[C@H](O)CCO`, the IC50 in test [1] came out at 4.4 µM; in test [2], 25.1 µM.

As for `CC(=O)N[C@@H]1C[C@@H](F)[C@](F)(C(=O)O)O[C@H]1[C@H](O)[C@H](O)CO`, the figures for the IC50 in test [1] and in test [2] were 3.67 µM and 3.71 µM, respectively.
